For 3 compounds, EC50 results are on record in patent publication US9873715B2, “Macrolides useful as anticancer agents” (PIERRE FABRE MEDICAMENT, priority 2013, dated 2018).

Assay type in all cases: cell-based
Assay [1] relates to SkoV3: human ovarian adenocarcinoma cell line. Nature of the assay: cell survival (ATP-lite luminescence), SkoV3. The note with it: SK-OV-3, SkoV3, 48 hours incubation, read-out: EC50 for various tumor cell lines: SkoV3. On the procedure: (§1) Molecules (I-1), (I-2) and (I-3) were identified during a test of antiproliferative activity on a metastatic melanoma cell line, WM266-4.
(§2) The cells are seeded in 96-well plates in phenol red-free RPMI 1640 medium (Seromed) to which is added 10% fetal calf serum (100 μl/well, 1·10^4 to 3·10^4 cells/ml depending on the line studied). After incubation for 24 hours at 37° C. in an incubator (5% CO2), the medium is replaced with the same medium further containing the compound to be tested (various concentrations are used) and then the plates are incubated for an additional 48 hours. Cell survival is evaluated by measuring luminescence after ATP release in the medium using the cell lysis solutions, luciferase and luciferin, included in the ATP-lite-M™ kit as recommended by the manufacturer (Packard, Rungis, France). Each experimental condition was tested at least three times in sextuplicate.

Assay [2] deals with BxPC3: human pancreatic adenocarcinoma cell line. Put plainly: cell survival (ATP-lite luminescence), BxPC3. Particulars: BXPC-3, BxPC3, 48 hours incubation, read-out: EC50 for various tumor cell lines: BxPC3. The method, then: as §1, §2
Assay [3] concerns KB: human oral carcinoma cell line. Nature of the assay: cell survival (ATP-lite luminescence), KB. Particulars: 48 hours incubation, read-out: EC50 for various tumor cell lines: KB. The method, then: as §1, §2
The test system of assay [4] is A549: human lung adenocarcinoma cell line. Put plainly: cell survival (ATP-lite luminescence), A549. The note with it: A549, 48 hours incubation, read-out: EC50 for various tumor cell lines: A549. The method, then:
as §1, §2

The test system of assay [5] is LoVo: human colon adenocarcinoma cell line. Put plainly: cell survival (ATP-lite luminescence), LoVo. The note with it: 48 hours incubation, read-out: EC50 for various tumor cell lines: LoVo. On the procedure: as §1, §2
Assay [6] deals with KB-V1: vinblastine-resistant human cervix carcinoma cell line. Nature of the assay: cell survival (ATP-lite luminescence), KB-V1. Particulars: KB-V1, 48 hours incubation, read-out: EC50 for various tumor cell lines: KB-V1. On the procedure:
as §1, §2

Assay [7] concerns Namalwa: Burkitt lymphoma cell line. Put plainly: cell survival (ATP-lite luminescence), Namalwa. The note with it: 48 hours incubation, read-out: EC50 for various tumor cell lines: Namalwa. On the procedure: as §1, §2

Turning to `COCC1OC(OC2CC(OC)CC3C2C(C)=CC2/C=C/C=C/C(C)C(/C=C/c4nc(C(C)CCCC#N)oc4C)OC(=O)CC/C=C(C)\C=C\C23C)C(OC)C(OC2OCC(OC)C(O)C2O)C1O` (stereo not drawn) [Molecule (I-2)], the EC50 in assay [1] is 1300 nM; in assay [2], 0.21 nM; in assay [3] it was 0.3 nM; in assay [4], under 0.001 nM; in assay [5], 0.011 nM; in assay [6], 0.49 nM. Also, the EC50 in assay [7] is 0.36 nM.

For the compound `COCC1OC(OC2CC(OC)CC3C2C(C)=CC2/C=C/C=C/C(C)C(/C=C/c4nc(C(C)CCCC#N)oc4C)OC(=O)CC/C=C(C)\C=C\C23C)C(OC)C(O)C1O` (stereo not drawn) [Molecule (I-1)], the EC50 in assay [1] amounted to 36000 nM; in assay [2], 0.22 nM; in assay [3], 0.31 nM; in assay [4] it was 0.011 nM; in assay [5], 0.04 nM; in assay [6], 0.7 nM. For the same compound, the EC50 in assay [7] worked out at 0.31 nM.

As for `CNC(=O)OC1C(OC)COC(OC2C(O)C(COC)OC(OC3CC(OC)CC4C3C(C)=CC3/C=C/C=C/C(C)C(/C=C/c5nc(C(C)CCCC#N)oc5C)OC(=O)CC/C=C(C)\C=C\C34C)C2OC)C1O` (stereo not drawn) [Molecule (I-3)], the concentration giving a half-maximal response (EC50) is 320 nM in assay [1]; 0.012 nM in assay [2]; 0.024 nM in assay [3]; under 0.001 nM in assay [4]; under 0.01 nM in assay [5]; 0.73 nM in assay [6]. For the same compound, the half-maximal effective concentration (EC50) in assay [7] was found to be 0.32 nM.

The EC50 is the concentration that produces a half-maximal response.
